Measured values published in US20230033849A1, “CBD SUNSCREEN FORMULATIONS AND USES THEREOF” (JUPITER WELLNESS, INC., priority 2021, published 2023).

Tests used:
[1] = tested on: Human primary epidermal keratinocytes (ATCC PCS 200-011); assay: MTT cell viability assay of keratinocytes after UVB irradiation; type: cell-based; conditions: CBD 1 μM, 4 μM and 8 μM for 1 hour before UVB, 10 seconds (approximately 60 mJ/cm^2), cells not treated with CBD 17%
Experimental: (§1) Human primary epidermal melanocytes (ATCC PCS200-013) and keratinocytes (ATCC PCS 200-011) cell-lines were cultured using serum free complete growth media (ATCC PCS 200-030). Cells were cultured at 37 C.° with 5% CO2. Cells were grown to 80% confluence before being washed with PBS buffer (37° C.) and trypsinized with EDTA-trypsin. A small aliquot of cells was stained with Trypan blue and counted using a haemocytometer. The remaining cells were plated in a 24 well plate with 300 uL of complete growth media (ATCC) for UV experimentation. Approximately 27*10^3 cells were added to each well. Twenty-four hours after inoculation, individual wells were treated with one of three different concentrations of CBD isolate (CBD Brands, Jupiter, Fla.) or left untreated (control). The concentrations of CBD used were 1 μM, 4 μM and 8 μM, respectively.
After CBD treatment for 1 hour, all cells were washed and with chilled (4° C.) PBS buffer. […] Exposure times were determined prior to the experiment, empirically, by exposing different wells to increasing UV exposure time and next conducting an MTT assay. […] The chosen exposure time was based on the exposure time that led to greater than 40% cell viability versus untreated cells determined by MTT assay. […] After exposure the effect of CBD on cell viability was evaluated by an MTT assay. […]

[2] = tested on: Human primary epidermal melanocytes (ATCC PCS200-013); assay: MTT cell viability assay of melanocytes after UVB irradiation; type: cell-based; conditions: Melanocyte, light or radiation study, approximately 60 mJ/cm^2, 0 μM control 16%, read-out: viability after UV irradiation
Experimental: as §1
After CBD treatment for 1 hour, all cells were washed and with chilled (4° C.) PBS buffer. UV exposure experiments were conducted in chilled PBS buffer to avoid heat stress. Cells were irradiated with UVB light (Dermalight 80, UVB lamp). The distance of the lamp to the wells of the plate was kept constant at 3 cm. Exposure times were determined prior to the experiment, empirically, by exposing different wells to increasing UV exposure time and next conducting an MTT assay. […] The chosen exposure time was based on the exposure time that led to greater than 40% cell viability versus untreated cells determined by MTT assay. CBD treated cells were exposed to UV light for this predetermined time of 10 seconds (approximately 60 mJ/cm^2). After exposure the effect of CBD on cell viability was evaluated by an MTT assay. Control cells were cultured in parallel with no CBD treatment, but underwent UVB irradiation.

For `C=C(C)[C@@H]1CCC(C)=C[C@H]1c1c(O)cc(CCCCC)cc1O` [CBD, cannabidiol], the “cell viability after irradiation with UVB” value [1] was “dose dependent increase in cell viability”, the viability at 1 µM ([2]; 1 μM CBD for 1 hour before UVB) was 48% and the viability at 4 µM ([2]; 4 μM CBD for 1 hour before UVB) was 65%. The viability at 8 µM ([2]; 8 μM CBD for 1 hour before UVB) was 12%.
